Key:
[1] = target: T1, 5-hydroxytryptamine receptor 1A (Rattus norvegicus, UniProt P19327); experiment: Binding affinity towards rat 5-hydroxytryptamine 1A receptor using [3H]8-OH-DPAT radioligand.
T1 sequence (P19327 whole entry): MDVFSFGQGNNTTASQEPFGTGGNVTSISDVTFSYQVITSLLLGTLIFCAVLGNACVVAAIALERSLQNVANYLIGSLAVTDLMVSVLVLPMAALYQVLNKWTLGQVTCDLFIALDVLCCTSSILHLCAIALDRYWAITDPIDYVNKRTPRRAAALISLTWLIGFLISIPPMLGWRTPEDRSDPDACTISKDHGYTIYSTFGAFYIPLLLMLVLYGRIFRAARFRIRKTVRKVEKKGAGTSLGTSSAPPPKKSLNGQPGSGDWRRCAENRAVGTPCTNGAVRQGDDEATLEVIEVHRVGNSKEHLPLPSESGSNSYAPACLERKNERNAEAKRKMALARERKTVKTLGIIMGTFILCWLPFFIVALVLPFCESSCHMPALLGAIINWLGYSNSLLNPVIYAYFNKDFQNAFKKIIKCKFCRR

[2] = target: T2, Adrenergic receptor alpha-1 (Rattus norvegicus, UniProt P15823+P23944+P43140); experiment: Binding affinity towards alpha-1 adrenergic receptor using [3H]prazosin radioligand.; format: protein assay
T2 sequence (P15823 whole entry): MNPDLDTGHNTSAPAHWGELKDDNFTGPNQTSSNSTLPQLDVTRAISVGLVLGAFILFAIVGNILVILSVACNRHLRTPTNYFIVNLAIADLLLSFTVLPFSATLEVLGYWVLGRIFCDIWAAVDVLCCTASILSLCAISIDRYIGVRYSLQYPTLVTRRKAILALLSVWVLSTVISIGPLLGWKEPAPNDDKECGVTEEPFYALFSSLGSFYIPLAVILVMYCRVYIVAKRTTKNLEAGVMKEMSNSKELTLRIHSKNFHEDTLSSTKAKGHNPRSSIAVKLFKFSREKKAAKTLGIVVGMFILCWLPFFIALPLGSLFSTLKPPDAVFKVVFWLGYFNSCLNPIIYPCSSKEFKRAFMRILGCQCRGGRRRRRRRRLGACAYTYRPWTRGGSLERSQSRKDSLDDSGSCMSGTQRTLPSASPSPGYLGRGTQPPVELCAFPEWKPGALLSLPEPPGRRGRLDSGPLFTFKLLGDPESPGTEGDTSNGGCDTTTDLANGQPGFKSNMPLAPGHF
T2 sequence (P23944 whole entry): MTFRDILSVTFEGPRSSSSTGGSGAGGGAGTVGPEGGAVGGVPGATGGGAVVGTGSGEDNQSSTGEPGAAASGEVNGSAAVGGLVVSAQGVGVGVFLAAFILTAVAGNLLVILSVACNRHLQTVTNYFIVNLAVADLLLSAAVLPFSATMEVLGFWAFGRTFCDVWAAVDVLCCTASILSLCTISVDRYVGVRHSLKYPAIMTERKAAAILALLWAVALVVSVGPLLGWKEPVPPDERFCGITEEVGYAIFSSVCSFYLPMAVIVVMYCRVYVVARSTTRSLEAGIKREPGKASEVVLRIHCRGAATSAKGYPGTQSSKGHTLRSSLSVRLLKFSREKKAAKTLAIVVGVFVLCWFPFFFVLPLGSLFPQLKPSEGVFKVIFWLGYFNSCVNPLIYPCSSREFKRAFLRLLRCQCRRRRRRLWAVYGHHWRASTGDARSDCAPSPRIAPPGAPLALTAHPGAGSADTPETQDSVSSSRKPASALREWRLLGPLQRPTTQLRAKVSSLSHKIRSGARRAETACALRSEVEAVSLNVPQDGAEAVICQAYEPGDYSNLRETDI
T2 sequence (P43140 whole entry): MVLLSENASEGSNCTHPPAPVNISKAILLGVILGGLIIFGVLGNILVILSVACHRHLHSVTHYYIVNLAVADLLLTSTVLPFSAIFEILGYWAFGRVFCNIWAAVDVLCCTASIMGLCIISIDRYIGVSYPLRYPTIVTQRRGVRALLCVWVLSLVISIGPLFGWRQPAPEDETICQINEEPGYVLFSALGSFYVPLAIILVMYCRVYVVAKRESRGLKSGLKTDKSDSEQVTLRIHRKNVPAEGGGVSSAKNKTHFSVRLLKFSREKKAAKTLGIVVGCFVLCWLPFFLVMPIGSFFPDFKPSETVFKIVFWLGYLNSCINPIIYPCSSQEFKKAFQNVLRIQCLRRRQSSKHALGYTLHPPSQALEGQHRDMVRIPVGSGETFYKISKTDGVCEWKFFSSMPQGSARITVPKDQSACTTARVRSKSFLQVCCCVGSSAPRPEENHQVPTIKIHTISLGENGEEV

D(2) dopamine receptor = D(2) dopamine receptor (Rattus norvegicus, UniProt P61169); experiment: Binding affinity towards dopamine receptor D2 using [3H]-raclopride radioligand.
D(2) dopamine receptor, sequence (P61169 whole entry): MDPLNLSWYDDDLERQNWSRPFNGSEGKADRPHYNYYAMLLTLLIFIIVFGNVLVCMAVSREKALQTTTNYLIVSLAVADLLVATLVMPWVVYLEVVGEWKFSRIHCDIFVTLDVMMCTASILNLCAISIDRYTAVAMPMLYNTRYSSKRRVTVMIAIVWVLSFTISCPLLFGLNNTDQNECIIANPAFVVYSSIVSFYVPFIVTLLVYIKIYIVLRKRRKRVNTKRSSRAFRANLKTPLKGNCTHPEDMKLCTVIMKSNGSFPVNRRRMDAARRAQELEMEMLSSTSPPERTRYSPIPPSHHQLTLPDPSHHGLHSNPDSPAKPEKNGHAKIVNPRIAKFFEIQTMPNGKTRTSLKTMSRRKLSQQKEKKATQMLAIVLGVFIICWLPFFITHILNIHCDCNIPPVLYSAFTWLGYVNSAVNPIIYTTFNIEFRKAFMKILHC

Row | Compound | Ki [1] | Ki [2] | Ki (D(2) dopamine receptor)
1 | O=C1C2CCCCN2C(=O)N1CN1CCN(c2ccc(F)cc2)CC1 (centres undefined) | 444 nM | 869 nM | > 10000 nM
2 | O=C1C2CCCN2C(=O)N1CCN1CCN(c2ccccc2)CC1 (centres undefined) | > 1000 nM | > 1000 nM | > 1000 nM
3 | COc1ccccc1N1CCN(CCCCN2C(=O)C3CCCN3C2=O)CC1 (centres undefined) | 5.5 nM | 8.3 nM | 107 nM
4 | O=C1C2CCCCN2C(=O)N1CCN1CCN(c2cccc(C(F)(F)F)c2)CC1 (centres undefined) | 65.8 nM | > 1000 nM | > 1000 nM
5 | O=C1C2CCCCN2C(=O)N1CCCN1CCN(c2ccc(F)cc2)CC1 (centres undefined) | 598 nM | 25.8 nM | > 1000 nM
6 | O=C1C2CCCCN2C(=O)N1CN1CCN(c2ccccc2)CC1 (centres undefined) | 101 nM | > 1000 nM | > 10000 nM
7 | O=C1C2CCCN2C(=O)N1CCCN1CCN(c2ccc(F)cc2)CC1 (centres undefined) | > 1000 nM | 25.2 nM | > 1000 nM
8 | O=C1C2CCCN2C(=O)N1CN1CCN(c2ccc([N+](=O)[O-])cc2)CC1 (centres undefined) | > 1000 nM | > 10000 nM | > 10000 nM
9 | COc1ccccc1N1CCN(CCCN2C(=O)C3CCCN3C2=O)CC1 (centres undefined) | 4.4 nM | 3.1 nM | > 1000 nM
10 | O=C1C2CCCN2C(=O)N1CCN1CCN(c2cccc(Cl)c2)CC1 (centres undefined) | 418 nM | 500 nM | > 1000 nM
11 | O=C1C2CCCCN2C(=O)N1CCCN1CCN(c2ccc([N+](=O)[O-])cc2)CC1 (centres undefined) | > 10000 nM | > 1000 nM | > 10000 nM
12 | O=C1C2CCCCN2C(=O)N1CN1CCN(c2cccc(Cl)c2)CC1 (centres undefined) | 57.7 nM | 135 nM | > 10000 nM
13 | O=C1C2CCCCN2C(=O)N1CCCCN1CCN(c2ccc(F)cc2)CC1 (centres undefined) | 57.9 nM | 10.4 nM | 615 nM
14 | O=C1C2CCCCN2C(=O)N1CCCCN1CCN(c2cccc(Cl)c2)CC1 (centres undefined) | 7.2 nM | 12.1 nM | 129 nM
15 | O=C1C2CCCN2C(=O)N1CCCN1CCN(c2ccccc2)CC1 (centres undefined) | 19.2 nM | 15.4 nM | > 1000 nM
16 | O=C1C2CCCN2C(=O)N1CN1CCN(c2cccc(Cl)c2)CC1 (centres undefined) | 58.4 nM | 292 nM | > 10000 nM
17 | O=C1C2CCCCN2C(=O)N1CCN1CCN(c2ccc(F)cc2)CC1 (centres undefined) | > 10000 nM | > 1000 nM | > 10000 nM
18 | O=C1C2CCCCN2C(=O)N1CCCCN1CCN(c2ccc([N+](=O)[O-])cc2)CC1 (centres undefined) | > 1000 nM | > 1000 nM | > 1000 nM
19 | O=C1C2CCCN2C(=O)N1CCCN1CCN(c2ccc([N+](=O)[O-])cc2)CC1 (centres undefined) | > 10000 nM | > 1000 nM | > 10000 nM
20 | O=C1C2CCCN2C(=O)N1CCCCN1CCN(c2ccc(F)cc2)CC1 (centres undefined) | 89.9 nM | 47.2 nM | > 1000 nM
21 | O=C1C2CCCN2C(=O)N1CN1CCN(c2ccccc2)CC1 (centres undefined) | 85.3 nM | 1000 nM | > 10000 nM
22 | O=C1C2CCCCN2C(=O)N1CCCN1CCN(c2ccccc2)CC1 (centres undefined) | 154 nM | 11.4 nM | > 1000 nM
23 | COc1ccccc1N1CCN(CCN2C(=O)C3CCCCN3C2=O)CC1 (centres undefined) | 45.5 nM | 131 nM | 246 nM

From ChEMBL document CHEMBL1129734, “Synthesis and structure-activity relationships of a new model of arylpiperazines. 1. 2-[[4-(o-methoxyphenyl)piperazin-1-yl]methyl]-1, 3-dioxoperhydroimidazo[1,5-alpha]pyridine: a selective 5-HT1A receptor agonist” (J Med Chem, 1996)
